Test results: patent US9040691B2, “Hydroxymethylaryl-substituted pyrrolotriazines as ALK1 inhibitors” (BAYER INTELLECTUAL PROPERTY GMBH, priority 2011, dated 2015)

How the values were obtained:
[1] = tested on: hSmad7 mRNA in BMP9-stimulated HMVEC; experiment: Smad7 target gene induction: HMVEC cell assay and TaqMan expression analysis; assay type: cell-based; settings: Homo sapiens, hBMP9 stimulation, Smad7 mRNA by TaqMan
Description: B-2a. Smad7 Target Gene Induction: HMVEC Cell Assay and TaqMan Expression Analysis
Activation of ALK1 receptors by BMP9 induces the Smad1/5 signalling pathway and enhances expression of target genes Smad6, Smad7 and Id-1. Induction of Smad7-mRNA in BMP9-stimulated endothelial cells was determined to monitor the cellular potency of ALK1 kinase inhibitors.
Human microvascular endothelial cells (IIMVECadult, Cell Systems, St. Katharinen) were seeded in complete ENGS MV medium with all supplements (LifeLine Cell Technology) in 96 well plates with 10 000 cells per well. After 4 h incubation at 37° C. and 7.5% CO2 in a humidified incubator, medium was replaced with minimal medium (ENGS MV without supplements containing 0.02% FCS). After 16 h, test compounds or medium (controls) were added to the cultures, followed 30 min later by addition of hBMP9 (R&D Systems). Medium was removed 1 to 4 h later, plates were gently washed with phosphate-buffered saline, and cells were lysed with 150 μl per well of ice-cold RLT buffer (Qiagen).
Total cellular RNA was isolated with the Trizol® reagent protocol according to the manufacturer's specifications (Invitrogen, USA) and treated with DNAseI to remove genomic DNA contamination.
For relative quantitation of the mRNA distribution of hSmad7, total RNA from each sample was first reverse-transcribed using the ImProm-II Reverse Transcription System (Promega, USA) according to the manufacturer's protocol. The final volume was adjusted to 200 μl with water.
For relative quantitation of selected mRNA, the Applied Bioscience ABI 7900HT Sequence Detection System was used according to the manufacturer's specifications and protocols. PCR reactions were set up to quantitate hSmad7- and the housekeeping gene L32-mRNA. Forward and reverse primers and probes for hSmad7 and L32 were designed using the Applied Bioscience ABI Primer Expressim software and were synthesized by Eurogentec (Belgium). The hSmad7 forward primer sequence was: Primer 1 (SEQ ID NO 1). The hSmad7 reverse primer sequence was: Primer 2 (SEQ ID NO 2). Probe 1 (SEQ ID NO 3), labelled with FAM as the reporter dye and TAMRA as the quencher, was used as a probe for hSmad7. The L32 forward primer sequence was: Primer 3 (SEQ ID NO 4). The L32 reverse primer sequence was: Primer 4 (SEQ ID NO 5). Probe 2 (SEQ ID NO 6), labelled with FAM as the reporter dye and TAMRA as the quencher, was used as a probe for L32.
The following reagents were prepared in a total of 20 μl added per well: 1× qPCR-MasterMix (Eurogentec, Belgium) and hSmad7 forward and reverse primers each at 200 nM, 200 nM hSmad7 FAM/TAMRA-labelled probe 1 (SEQ ID NO 3), and 5 μl of template cDNA. Correspondingly, a second mix in a total of 20 μl was prepared using L32 FAM/TAMRA-labelled probe 2 (SEQ ID NO 6) and L32 forward and reverse primers added per well in parallel samples.
Thermal cycling parameters were 2 min at 50° C., followed by 10 min at 95° C., followed by 40 cycles of melting at 95° C. for 15 sec and annealing/extending at 60° C. for 1 min.
Calculation of Relative Expression:
The Ct (cycle threshold) values were calculated from the turning point of PCR product quantity curves by the ΔΔCt method (delta-delta Ct): ΔCt=CthSmad7−CtL32; relative expression=2^(15-ΔCt).
IC50 values of test compounds were calculated on basis of relative Smad7 expressions at different compound concentrations.

[2] = target: ALK1 kinase (Homo sapiens (Human), UniProt P37023); experiment: In vitro enzyme inhibition using scintillation of incorporated radio label (flashplate assay); assay type: biochemical; settings: biotinylated α-casein, 33P-ATP, 500 nM ATP
Sequence of ALK1 kinase (P37023 22-503): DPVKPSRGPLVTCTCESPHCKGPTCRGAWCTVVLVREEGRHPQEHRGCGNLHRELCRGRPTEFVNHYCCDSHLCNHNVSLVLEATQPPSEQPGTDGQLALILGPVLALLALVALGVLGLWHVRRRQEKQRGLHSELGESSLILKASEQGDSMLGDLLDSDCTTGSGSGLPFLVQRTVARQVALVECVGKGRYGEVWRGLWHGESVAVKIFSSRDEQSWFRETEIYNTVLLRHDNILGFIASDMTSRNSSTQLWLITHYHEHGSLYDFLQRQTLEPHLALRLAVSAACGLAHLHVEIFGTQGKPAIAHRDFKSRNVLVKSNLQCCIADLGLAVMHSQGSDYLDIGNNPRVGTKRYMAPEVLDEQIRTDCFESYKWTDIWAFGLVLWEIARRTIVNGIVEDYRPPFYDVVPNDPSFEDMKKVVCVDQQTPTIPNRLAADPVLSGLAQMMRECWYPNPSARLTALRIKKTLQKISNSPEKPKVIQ
Description: B-1a. In Vitro Enzyme Inhibition Using Scintillation of Incorporated Radio Label (Flashplate Assay)
Test compounds diluted in DMSO are mixed with a suitable substrate/co-substrate (here: biotinylated α-casein and ^33P-ATP) in a corresponding assay buffer. Addition of the enzyme of interest (here: ALK1 kinase) starts the enzyme reaction. The enzyme-catalyzed incorporation of radio label into the substrate is measured via scintillation. Incorporated radio label is separated from free radio label via specific binding of the biotinylated substrate to strepavidin-coated microtiter plates (flashplates) and concomitant washing steps. The scintillation signal intensity (counts per minutes, cpm) is proportional to the enzyme activity. Enzyme inhibition results in a decreased signal intensity. IC50 values of the test compounds are determined by cpm-versus-[I] plots.
Reaction buffer contains 50 mM Tris pH 8.0 (Sigma), 1 mM MnCl2 (Sigma), 0.01% Nonidet P40 (Fluka), 0.5× Complete EDTA-free protease inhibitors (Roche; contains a mixture of several protease inhibitors for the inhibition of serine and cysteine (but not metallo-) proteases; 1 tablet contains protease inhibitors sufficient for a 50 ml cell extract; the concentration used in this assay corresponds to 1 tablet in 100 ml).
• 1.) Stop solution: Dulbecco's PBS (PAA, Pasching, Austria), 25 mM EDTA (Sigma), 25 μM ATP (Roche), 0.05% Triton X-100 (Sigma); • 2.) Saturation buffer: Dulbecco's PBS (PAA, Pasching, Austria), 100 μM ATP (Roche), 0.2% Triton X-100 (Sigma); • 3.) Wash buffer: Dulbecco's PBS (PAA, Pasching, Austria). Enzyme Solution:
ALK1 (Invitrogen, Paisley, United Kingdom) stock solution (35.7 ng/μl) is diluted to 4 ng/μl; final concentration in the reaction is 1 ng/μl.
Dephosphorylated α-casein (Sigma) is biotinylated according to the manufacturer's protocol (Pierce, Bonn, Germany) resulting in a stock solution of 61.6 μM. Briefly, EZ-Link® Biotin reagent (sulfosuccinimidyl-6-(biotinamido)hexanoate; Pierce, Bonn, Germany) is added in equal molarity to α-casein and incubated on ice for 2 h. Afterwards, the biotin reagent is removed by dialysis (2×2 h and overnight).
A 100 mM solution of cold (unlabelled) ATP (Roche) is diluted 1:100 before each test. For the substrate mix, α-casein is diluted to 2.22 μM resulting in a final concentration of 1 μM α-casein in the reaction. Additionally, cold ATP is added to give a 1.11 μM solution which results in a final concentration of 500 nM in the reaction.
Radioactive ATP Solution:
The stock solution (9.25 MBq/25 μl of ^33P-ATP; Perkin Elmer, Rodgau, Germany) is diluted to 651.2 Bq/μl.
Compounds are dissolved in 100% DMSO (10 mM stock solution) and diluted to 2 mM. Further dilutions are made stepwise 1:3.16 in DMSO.
A volume of 9 μl substrate solution is provided into each well of a 384 well microliter plate (Greiner Bio-One, Solingen, Germany), 1 μl compound solution and 5 μl of the radioactive ATP solution are added. Enzyme reaction starts with addition of 5 μl of enzyme solution. The mixture is incubated for 60 minutes at room temperature and then stopped by addition of 10 μl stop solution. The 384 well microliter flashplates (Perkin Elmer, Rodgau, Germany) are saturated with 50 μl saturation buffer per well for at least 60 minutes. Subsequently, a volume of 20 μl is discarded and replaced with 20 μl of the stopped ALK1 reaction mixture. Binding of biotinylated substrate to the flashplate is allowed for by overnight incubation at room temperature. Bound substrate is separated from unbound components through repeated washing steps (3×50 μl washing buffer per well). Finally, 50 μl washing buffer is added, and the scintillation signal (cpm) is measured in a suitable counter (Perkin Elmer, Rodgau, Germany).

[3] = tested on: hSmad7 mRNA in BMP9-stimulated HUVEC; experiment: Smad7 target gene induction: HUVEC cell assay and TaqMan expression analysis; assay type: cell-based, human; settings: 1 ng/ml BMP9 for 3 h, Smad7 mRNA by TaqMan
Description: B-2b. Smad7 Target Gene Induction: HUVEC Cell Assay and TaqMan Expression Analysis
The in vitro potency of ALK1 inhibitors was tested in a cell-based assay. Bone morphogenetic protein 9 (BMP9) induces Smad7 mRNA expression in human vascular endothelial cells (HUVEC) via activation of ALK1.
1.5×10^4 passage 2 HUVECs (Lonza, Basel, Switzerland) per well were seeded in a 96-well plate in EBM-2 medium containing EGM-2 additives and growth factors (Lonza, CC-3156 and CC-4176). After 4 h, the medium was changed to EBM-2 with 0.2% fetal calf serum (FCS) and the cells were starved for 20 h in a humidified incubator at 37° C., 5% CO2. Test compounds were added at 11 different concentrations between 0 and 10 000 nM one hour prior to stimulation of the cells for 3 h with recombinant human BMP9 protein at 1 ng/ml (dissolved in 4 mM hydrochloric acid, 0.1% BSA at 10 μg/ml; R&D Systems, Minneapolis, Minn., USA, 3209BP). Medium was removed, and the cells were lysed in 100 μl RLT buffer (Qiagen, Hilden, Germany). RNA was isolated using the Qiagen RNeasy 96 Kit (order-No. 74182) according to manufacturer's instructions and eluted from the columns with 65 μl RNAse-free water. Reverse transcription for quantitative RT-PCR was carried out with the Omniscript Kit (Qiagen, 205113) in RNAse-free 96-well round-bottom plates. Per well, 6.8 μl of a reaction master mix containing 2 μl 10×RT-buffer, 2 μl dNTPs (5 mM each), 1.6 μl random primer N6 (125 μM), 0.25 μl Rnase Out (40 U/μl) and 1 μl Omniscript Reverse Transcriptase were added. After addition of 13.2 μl of the RNA/water mixture, plate contents were mixed, incubated for 1 h at 37° C. and the total volume adjusted to 100 μl in each well by addition of 80 μl RNAse-free water.
The quantification of human Smad7 mRNA was carried out on a TaqMan using the Eurogentec qPCR Mastermix Plus (RT-QP2X-03-075+; Cologne, Germany) and employing human L32 as housekeeping reference mRNA. Per qPCR reaction, 2.8 μl primer mix, 10 μl master mix, 2.2 μl water and 5 μl cDNA were added. Thermal cycling parameters were 2 min at 50° C., followed by 10 min at 95° C., followed by 40 cycles of melting at 95° C. for 15 sec and annealing/extending at 60° C. for 1 min.
Smad7 mRNA levels induced by 1 ng/ml BMP9 without the addition of any inhibitor were set at 100% induction, and % inhibition was calculated for each test compound with this value. For each test compound, every value was determined in quadruplicate. The IC50 values were determined using Microsoft Excel. The fitting method used was a weighted, unconstrained ML-fit.

Compound | IC50 [1] | IC50 [2] | IC50 ([3]; Homo sapiens, 3 h) | IC50 [3]
Nc1ncnn2c(C3CCNC3)cc(-c3cc(F)c(CO)c(F)c3)c12 (racemic) [Example 8, rac-{4-[4-Amino-7-(pyrrolidin-3-yl)pyrrolo[2,1-f][1,2,4]triazin-5-yl]-2,6-difluorophenyl}methanol] | 60 nM |  |  | 
COc1cc(-c2cc(C3CCCNC3)n3ncnc(N)c23)cc(F)c1CO (centres unmarked) [Example 30, {4-[4-Amino-7-(piperidin-3-yl)pyrrolo[2,1-f][1,2,4]triazin-5-yl]-2-fluoro-6-methoxyphenyl}-methanol] |  | 2 nM | 51 nM | 
CC(C)c1cc(-c2cc(F)c(CO)c(F)c2)c2c(N)ncnn12 [Example 43, [4-(4-Amino-7-isopropylpyrrolo[2,1-f][1,2,4]triazin-5-yl)-2,6-difluorophenyl]methanol] |  | 1.9 nM | 27 nM | 

Continued, in another order:

IC50 [1] | IC50 [2] | Compound | IC50 ([3]; Homo sapiens, 3 h) | IC50 [3]
 | 3.2 nM | COc1cc(-c2cc(C(O)C3CC3)n3ncnc(N)c23)ccc1CO (racemic) [Example 40, rac-{4-Amino-5-[4-(hydroxymethyl)-3-methoxyphenyl]pyrrolo[2,1-f][1,2,4]triazin-7-yl}(cyclopropyl)methanol] | 62 nM | 
 | 3.5 nM | COc1cc(-c2cc(C(O)C3CC3)n3ncnc(N)c23)ccc1CO (single isomer, unassigned; ent-4) [Example 41, ent-4-Amino-5-[4-(hydroxymethyl)-3-methoxyphenyl]pyrrolo[2,1-f][1,2,4]triazin-7-yl}(cyclopropyl)methanol (enantiomer 1)] |  | 77 nM
 | 1.2 nM | COc1cc(-c2cc(C(O)C3CC3)n3ncnc(N)c23)ccc1CO (single isomer, unassigned; ent-4) [Example 42, ent-4-Amino-5-[4-(hydroxymethyl)-3-methoxyphenyl]pyrrolo[2,1-f][1,2,4]triazin-7-yl}(cyclopropyl)methanol (enantiomer 2)] |  | 6.6 nM
